Where “and” joins values, the source holds several entries; their conditions need not be identical. Equal values may be shown once. Read-outs that look alike come from different tables or passages of the source.
Assays:
[1] = DPPH radical scavenging assay; conditions: DPPH 0.3 mM in methanol, 45 min in the dark, 512 nm
Protocol: Antioxidant activities of compounds 2a–h against ascorbic acid (Sigma Aldrich, Saint Louis, Missouri, USA) as a positive control were evaluated using 2,2-diphenyl-1-picrylhydrazyl (DPPH) radical scavenging assay following a reported method by Zhu et al.. Triplicate solutions of the test compounds and the control in methanol (concentrations ranging from 0 µM to 50 µM) were treated with a solution of DPPH (0.3 mM) in methanol. The mixtures were incubated in the dark for 45 min and the absorbances were recorded at the wavelength of 512 nm using Varioskan flash microplate spectrophotometer reader. The inhibition was calculated in terms of percentage using the formula below, DPPH radical scavenged (%)=AbC − AbS/AbC×100, where AbC is absorbance of control and AbS the absorbance of the test sample. A graph of percentage inhibition of free radical activity was plotted against concentration of the sample.

[2] = target: T1, human recombinant β-secretase (Homo sapiens, UniProt P56817); test: β-secretase (BACE-1) FRET enzyme assay; format: biochemical; conditions: for IC50: FRET, sodium acetate pH 4.5, 60 min, triplicate
T1 construct: purchased Pan Vera / Thermo Fisher Scientific Corporation; host or cells: baculovirus expression
Protocol: The assays were conducted in triplicates. […] The percentage inhibition was calculated using the following equation: Inhibition (%)=1–(S –S0)/(C –C0) ×100, where C is the fluorescence of control (enzyme, assay buffer and substrate) after 60 min of incubation, C0 is the fluorescence of control at time 0, S is the fluorescence of tested samples (enzyme, sample solution and substrate) after 60 min. of incubation and S0 the fluorescence of the tested samples at time 0. The IC50 values were calculated with Origin Pro 9.0. (OriginLab Corporation).

[3] = target: T2, α-Glucosidase type 1 from baker's yeast (Saccharomyces cerevisiae, UniProt P53341); test: biochemical; format: biochemical
T2 construct: purchased Sigma Aldrich (Pty) Ltd
Protocol: The IC50 values of these compounds were calculated through the nonlinear regression analysis using Origin Pro 9.0 (OriginLab Corporation, Northampton, MA, USA) and are expressed as the mean standard deviation (SD) of three distinct experiments.

[4] = target: T3, PTP1B (Homo sapiens, UniProt P18031); test: PTP1B inhibition assay (pNPP substrate); format: biochemical; conditions: Hepes buffer pH 7.0, triplicate
T3 construct: purchased Sigma Aldrich, Modderfontein, South Africa
T3 sequence (P18031 1-435): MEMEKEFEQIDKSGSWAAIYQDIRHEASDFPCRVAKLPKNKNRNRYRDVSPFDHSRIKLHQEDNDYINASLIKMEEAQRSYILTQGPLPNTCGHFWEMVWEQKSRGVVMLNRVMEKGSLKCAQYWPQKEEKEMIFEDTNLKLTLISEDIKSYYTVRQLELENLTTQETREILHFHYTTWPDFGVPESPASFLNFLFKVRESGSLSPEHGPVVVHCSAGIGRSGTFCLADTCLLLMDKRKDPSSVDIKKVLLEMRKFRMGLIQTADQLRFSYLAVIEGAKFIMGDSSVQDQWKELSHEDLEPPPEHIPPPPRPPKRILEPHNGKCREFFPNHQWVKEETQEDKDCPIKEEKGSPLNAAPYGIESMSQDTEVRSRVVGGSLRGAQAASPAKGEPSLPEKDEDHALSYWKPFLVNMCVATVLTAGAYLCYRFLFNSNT
Protocol: Activity of PTPase (Sigma Aldrich, Modderfontein, South Africa) was evaluated using p-nitrophenylphosphate (PNPP) as the substrate. […] The reaction was stopped by the addition of 30 μL of 3 M NaOH and absorbance was determined at wavelength of 410 nm. Control tubes without the enzyme were ran in parallel to nullify the nonenzymatic reaction and for calculating the concentration of p-nitrophenolate ions produced in the reaction mixture.

[5] = target: T3, PTP1B; test: Kinetic studies towards PTP1B inhibition (Lineweaver-Burk and Dixon plots); format: biochemical; conditions: for mode of inhibition of PTP1B: Lineweaver-Burk and Dixon plots; for Ki: inhibitor 0.5-20 µM, substrate 0-25.0 µM, read-out: Ki (Dixon plot), PTP1B
Protocol: The PTP1B inhibitory activity of compounds 2a–h and sodium orthovanadate was evaluated in triplicates in a 96 well microplate following a protocol by Goldstein et al.. Activity of PTPase (Sigma Aldrich, Modderfontein, South Africa) was evaluated using p-nitrophenylphosphate (PNPP) as the substrate. A 10 μL of PTP1B solution (0.02 U/mL) in 50 mM Hepes buffer (pH 7.0) with different concentrations (0.5, 10, 25, 50, 100 μM) of the test compounds and the reference standard were incubated at 25 °C for 10 min. After pre-incubation, 25 μL of HEPES buffer and 25 μL of 2 mM (pNPP) were added and the mixtures were incubated at 37 °C for 30 min. The reaction was stopped by the addition of 30 μL of 3 M NaOH and absorbance was determined at wavelength of 410 nm. Control tubes without the enzyme were ran in parallel to nullify the nonenzymatic reaction and for calculating the concentration of p-nitrophenolate ions produced in the reaction mixture. A molar extinction coefficient of 1.78 ×10^4 M^-1 cm^-1 was used to calculate the concentration of p-nitrophenolate ions produced in the reaction mixture.
Compounds 2c and 2h were subjected to kinetic analysis following the procedure outlined in 2.3.2 with inhibitors of various concentrations (0.5, 5, 10, 20 µM). The assay was performed with substrate of various concentrations (0, 2.5, 6.25, 12.5, 25.0 µM). The absorbance due to the p-nitrophenol produced by dephosphorylation of PTP1B was measured at 405 nm. The kinetic parameters were determined using Lineweaver-Burk double-reciprocal plots and the Dixon the Dixon plot method at increasing substrate and compound concentrations.

[6] = target: T4, α-glucosidase (Saccharomyces cerevisiae, UniProt P53341); test: Kinetic studies towards α-glucosidase inhibition (Lineweaver-Burk and Dixon plots); format: biochemical; conditions: for mode of inhibition of α-glucosidase: Lineweaver-Burk and Dixon plots; for Ki: inhibitor 0.5-20 µM, substrate 0–25 µM, read-out: Ki (Dixon plot), α-glucosidase
T4 construct: purchased Sigma Aldrich (Pty) Ltd
Protocol: The α-glucosidase inhibitory activity of compounds 2a–h was evaluated in triplicates in a 96 well microplate following a protocol by Shi et al.. […] Then 20 µL of 2 mM PNP-G was added and the absorbances were recorded at a wavelength of 405 nm using Varioskan flash microplate spectrophotometer (Thermo Scientific, Waltham, MA, USA). The IC50 values of these compounds were calculated through the nonlinear regression analysis using Origin Pro 9.0 (OriginLab Corporation, Northampton, MA, USA) and are expressed as the mean standard deviation (SD) of three distinct experiments.
The kinetics studies on compounds 2c and 2h were performed according to the reaction conditions in 2.3.1 with inhibitors of various concentrations (0.5, 5, 10, 20 µM) and the ranges of final substrate concentration were 0–25 µM. The type of inhibition was determined by using Lineweave-Burk plot (the inverse of velocity (1/v) against the inverse of the substrate concentration (1/[S]). The inhibitor constant was obtained by Dixon plot (the inverse of velocity (1/v) against concentration of inhibitor at each substrate concentration).

[7] = target: T5, cyclooxygenase-2 (COX-2) (Homo sapiens, UniProt P35354); test: COX-2 inhibitor screening kit assay; conditions: COX-2 IC50, means from duplicate runs
T5 sequence (P35354 18-604): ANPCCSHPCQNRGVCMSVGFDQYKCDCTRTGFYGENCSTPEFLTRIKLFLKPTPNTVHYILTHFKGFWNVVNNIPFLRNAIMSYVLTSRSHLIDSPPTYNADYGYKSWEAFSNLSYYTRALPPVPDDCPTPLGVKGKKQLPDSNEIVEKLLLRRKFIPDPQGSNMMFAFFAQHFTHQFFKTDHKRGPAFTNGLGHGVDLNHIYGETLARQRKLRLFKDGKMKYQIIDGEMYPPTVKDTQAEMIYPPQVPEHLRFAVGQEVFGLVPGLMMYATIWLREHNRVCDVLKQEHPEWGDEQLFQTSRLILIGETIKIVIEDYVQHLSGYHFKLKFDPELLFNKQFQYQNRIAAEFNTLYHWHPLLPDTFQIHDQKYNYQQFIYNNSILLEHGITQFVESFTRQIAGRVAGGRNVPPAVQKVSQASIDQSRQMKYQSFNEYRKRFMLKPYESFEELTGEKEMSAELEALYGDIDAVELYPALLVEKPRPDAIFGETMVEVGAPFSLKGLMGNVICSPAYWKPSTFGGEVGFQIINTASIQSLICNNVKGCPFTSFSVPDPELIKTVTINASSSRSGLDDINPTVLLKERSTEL
Protocol: The absorbance was measured using a Varioskan flash microplate spectrophotometer and the IC50 values were calculated with the aid of Origin Pro 9.0.

[8] = yeast enzyme, PNP-G substrate, pH 6.8, 37 °C, mean ± SD, triplicate, read-out: IC50 α-Glucosidase

T1 sequence (P56817 46-501): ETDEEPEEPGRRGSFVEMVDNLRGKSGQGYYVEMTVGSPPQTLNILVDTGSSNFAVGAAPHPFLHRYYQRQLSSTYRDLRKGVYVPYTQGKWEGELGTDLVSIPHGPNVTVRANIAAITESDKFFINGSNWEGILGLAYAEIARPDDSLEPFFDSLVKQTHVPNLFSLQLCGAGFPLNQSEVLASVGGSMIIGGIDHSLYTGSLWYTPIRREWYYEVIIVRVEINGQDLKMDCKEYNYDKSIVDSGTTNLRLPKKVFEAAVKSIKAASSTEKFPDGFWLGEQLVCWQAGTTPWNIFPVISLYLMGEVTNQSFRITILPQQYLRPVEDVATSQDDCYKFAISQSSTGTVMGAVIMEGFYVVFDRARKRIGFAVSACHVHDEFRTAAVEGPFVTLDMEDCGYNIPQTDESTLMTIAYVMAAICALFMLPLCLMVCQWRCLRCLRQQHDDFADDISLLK
T2 sequence (P53341 whole entry): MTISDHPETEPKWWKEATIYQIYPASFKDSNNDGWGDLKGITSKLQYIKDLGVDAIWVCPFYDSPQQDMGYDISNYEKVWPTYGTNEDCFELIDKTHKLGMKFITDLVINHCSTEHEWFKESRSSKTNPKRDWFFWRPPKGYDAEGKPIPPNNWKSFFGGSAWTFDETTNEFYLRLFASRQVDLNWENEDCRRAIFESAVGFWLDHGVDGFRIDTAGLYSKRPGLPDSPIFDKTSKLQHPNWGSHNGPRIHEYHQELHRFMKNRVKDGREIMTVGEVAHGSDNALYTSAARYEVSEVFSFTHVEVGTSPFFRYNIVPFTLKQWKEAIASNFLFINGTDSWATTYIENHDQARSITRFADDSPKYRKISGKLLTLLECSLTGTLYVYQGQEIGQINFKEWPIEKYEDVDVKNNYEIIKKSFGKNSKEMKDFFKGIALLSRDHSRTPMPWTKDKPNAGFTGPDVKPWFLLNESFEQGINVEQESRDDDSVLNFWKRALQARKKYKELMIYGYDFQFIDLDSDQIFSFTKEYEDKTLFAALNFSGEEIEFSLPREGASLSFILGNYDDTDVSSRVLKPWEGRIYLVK
T4 sequence (P53341 whole entry): as above

Row | SMILES | IC50 [1] | IC50 [2] | IC50 [3, 8] | IC50 [4] | activity against β-secretase (in words) [2] | melting point | IC50 [3] | activity against α-glucosidase (in words) ([3]; tested 0–100 μM) | mode of inhibition of PTP1B [5] | Ki [5] | mode of inhibition of α-glucosidase [6] | Ki [6] | IC50 [7] | Vmax, α-glucosidase in presence of inhibitor ([6]; unchanged with inhibitor concentration)
1 | O=C1O[C@H]([C@@H](O)CO)C(O)=C1O [Ascorbic acid, ascorbic acid, reference compound] | 10.7 ± 0.42 µM |  |  |  |  |  |  |  |  |  |  |  |  | 
2 | CC(=O)c1cc2cc(-c3cccc(F)c3)oc2cc1O [Compound 2b, 1-[2-(3-Fluorophenyl)-6-hydroxybenzofuran-5-yl]ethanone] | 46.5 ± 0.24 µM | > 100 µM | 4.65 ± 0.13 µM | 24.5 ± 0.29 µM |  |  |  |  |  |  |  |  |  | 
3 | CC(=O)c1cc2cc(-c3ccc(C)cc3)oc2cc1O [Compound 2f, 1-[6-Hydroxy-2-(4-tolyl)benzofuran-5-yl]ethanone] | 26.7 ± 0.62 µM | > 100 µM |  | 26.7 µM | inactive | 169 to 172 °C | 14.05 ± 0.07 µM |  |  |  |  |  |  | 
4 | CC(=O)c1cc2cc(-c3ccccc3)oc2cc1O [Compound 2a, 1-[6-Hydroxy-2-phenylbenzofuran-5-yl]ethanone] | 12.2 ± 2.1 µM | 63.15 ± 0.07 µM |  | 23 ± 0.23 µM |  |  | > 100 µM | No activity |  |  |  |  |  | 
5 | CC(=O)c1cc2cc(-c3ccc(F)cc3)oc2cc1O [Compound 2c, 1-[2-(4-Fluorophenyl)-6-hydroxybenzofuran-5-yl]ethanone] | 9.8 µM and 9.82 µM | > 100 µM | 0.11 ± 0.04 µM | 17.8 µM |  |  |  |  | mixed-type | 5.2 ± 0.1 µM | non-competitive | 15.09 ± 0.03 µM | 2.8 µM and 2.81 µM | 
6 | COc1ccc(-c2cc3cc(C(C)=O)c(O)cc3o2)cc1 [Compound 2g, 1-[6-Hydroxy-2-(4-methoxyphenyl)benzofuran-5-yl]ethanone] | 16.8 ± 0.38 µM | 27.3 ± 1.1 µM | 0.56 ± 0.24 µM | 31.9 µM |  |  |  |  |  |  |  |  | 2.3 µM and 2.33 µM | 
7 | CC(=O)c1cc2cc(-c3cccc(Cl)c3)oc2cc1O [Compound 2d, 1-[2-(3-Chlorophenyl)-6-hydroxybenzofuran-5-yl]ethanone] | 15.5 ± 0.21 µM | > 100 µM | > 100 µM | 29.3 µM |  |  |  |  |  |  |  |  |  | 
8 | CC(=O)c1cc2cc(-c3ccc(Cl)cc3)oc2cc1O [Compound 2e, 1-[2-(4-Chlorophenyl)-6-hydroxybenzofuran-5-yl]ethanone] | 11.3 ± 1.2 µM | > 100 µM |  | 21.5 µM |  | 170 to 173 °C | 64.9 ± 0.05 µM |  |  |  |  |  |  | 
9 | COc1cc(OC)cc(-c2cc3cc(C(C)=O)c(O)cc3o2)c1 [Compound 2h, 1-[6-Hydroxy-2-(3,5-dimethoxyphenyl)benzofuran-5-yl]ethanone] | 6.28 ± 0.33 µM | 25.8 ± 0.08 µM | 0.78 ± 0.31 µM | 11.9 ± 0.35 µM |  | 155 to 156 °C |  |  | non-competitive | 0.49 ± 0.01 µM | mixed mode | 5.11 ± 0.42 µM | 99.6 ± 2.6 µM | 0.19
